Patent US20260132129A1 (Genesis Therapeutics, Inc., priority 2022, published 2026)

Biological target: T1, PI3Kα H1047R (T47D cells) (Homo sapiens, UniProt P42336, H1047R)
T1 construct: endogenous in cells; host or cells: T47D cells
Assay: PI3Kα cellular assay: pAKT HTRF in T47D cells after EGF stimulation
Assay type: cell-based
Details: for IC50: T47D cells (PI3Kα H1047R), pAKT S473 HTRF
Method in brief: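 T47D cells (PIK3CA H1047R) serum-starved 16 h, then treated 1 h at 37 °C with compound (10,000 nM top, 3-fold steps to 0.5 nM). After 10 min stimulation with 20 ng/mL EGF, cells were lysed and pAKT measured by HTRF.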

[1] = selectivity of T47D (H1047R) over SKBR3 (WT) pAKT IC50
[2] = selectivity T47D (H1047R) over SKBR3 (WT), pAKT HTRF
[3] = 1 hr compound, 20 ng/ml EGF 10 min

T1 sequence (P42336 whole entry H1047R): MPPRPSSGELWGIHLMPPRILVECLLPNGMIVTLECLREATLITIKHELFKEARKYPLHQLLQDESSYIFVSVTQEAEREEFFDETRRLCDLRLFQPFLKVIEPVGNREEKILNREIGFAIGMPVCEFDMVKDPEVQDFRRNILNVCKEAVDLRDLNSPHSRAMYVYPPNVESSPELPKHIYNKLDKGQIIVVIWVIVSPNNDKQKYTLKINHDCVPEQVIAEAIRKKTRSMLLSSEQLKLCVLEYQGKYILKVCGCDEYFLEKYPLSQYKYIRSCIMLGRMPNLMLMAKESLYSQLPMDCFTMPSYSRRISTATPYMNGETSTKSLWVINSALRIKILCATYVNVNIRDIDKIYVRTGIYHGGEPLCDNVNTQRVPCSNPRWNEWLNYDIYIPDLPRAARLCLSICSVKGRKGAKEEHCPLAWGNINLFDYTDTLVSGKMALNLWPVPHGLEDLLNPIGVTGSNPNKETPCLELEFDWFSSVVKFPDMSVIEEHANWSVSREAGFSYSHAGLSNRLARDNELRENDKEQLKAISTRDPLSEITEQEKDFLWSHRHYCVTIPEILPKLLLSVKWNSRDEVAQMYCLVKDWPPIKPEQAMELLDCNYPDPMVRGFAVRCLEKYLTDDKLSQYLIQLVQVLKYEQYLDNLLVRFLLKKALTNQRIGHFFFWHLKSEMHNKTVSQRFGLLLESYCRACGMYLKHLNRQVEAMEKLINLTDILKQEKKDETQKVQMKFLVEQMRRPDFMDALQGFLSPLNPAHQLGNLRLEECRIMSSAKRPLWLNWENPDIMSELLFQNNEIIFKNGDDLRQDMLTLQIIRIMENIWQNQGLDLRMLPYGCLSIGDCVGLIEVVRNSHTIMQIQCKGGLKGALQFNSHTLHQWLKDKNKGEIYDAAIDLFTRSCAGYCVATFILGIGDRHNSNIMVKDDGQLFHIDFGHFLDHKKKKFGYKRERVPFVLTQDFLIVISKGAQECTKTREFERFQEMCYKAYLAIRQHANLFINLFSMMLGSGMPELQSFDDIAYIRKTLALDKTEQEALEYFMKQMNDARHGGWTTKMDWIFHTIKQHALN
T1 sequence (P27986 whole entry partner): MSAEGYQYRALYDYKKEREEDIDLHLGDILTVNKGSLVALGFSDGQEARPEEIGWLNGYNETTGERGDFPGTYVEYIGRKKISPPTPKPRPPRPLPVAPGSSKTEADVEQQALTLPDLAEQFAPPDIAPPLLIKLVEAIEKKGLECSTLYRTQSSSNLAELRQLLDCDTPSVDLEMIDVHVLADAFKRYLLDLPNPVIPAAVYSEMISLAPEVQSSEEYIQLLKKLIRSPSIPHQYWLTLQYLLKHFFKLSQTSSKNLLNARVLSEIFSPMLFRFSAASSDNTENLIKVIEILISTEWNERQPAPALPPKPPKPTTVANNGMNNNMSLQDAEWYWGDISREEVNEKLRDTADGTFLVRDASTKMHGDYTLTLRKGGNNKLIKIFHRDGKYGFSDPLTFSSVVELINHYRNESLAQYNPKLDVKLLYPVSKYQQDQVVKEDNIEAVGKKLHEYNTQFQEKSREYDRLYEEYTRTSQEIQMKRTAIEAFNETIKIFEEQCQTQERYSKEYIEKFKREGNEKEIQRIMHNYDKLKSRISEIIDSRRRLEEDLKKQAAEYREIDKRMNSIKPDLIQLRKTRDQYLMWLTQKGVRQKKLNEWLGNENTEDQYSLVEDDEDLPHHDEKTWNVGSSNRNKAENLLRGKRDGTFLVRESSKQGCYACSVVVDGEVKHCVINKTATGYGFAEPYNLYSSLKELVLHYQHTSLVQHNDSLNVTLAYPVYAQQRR

| Structure (SMILES) | IC50 (EGF stimulation) [nM] | T47D pAKT S473 HTRF IC50 (H1047R): T47D (H1047R) selectivity over SKBR3 (WT) [1] | T47D pAKT S473 HTRF IC50 (H1047R): T47D (H1047R) selectivity over SKBR3 (WT) [2] | IC50 [3] [nM] |
| --- | --- | --- | --- | --- |
| Cc1cc([C@@H](C)Nc2cccc3nonc23)c2nc(N3CCOCC3)cc(=O)n2c1 [Compound 802] | > 2000 | C (C denotes ≤5-fold) | – | – |
| Cc1cc([C@H](C)Nc2ccccc2S(N)(=O)=O)c2nc(-c3cccc(C#N)c3)c(C)c(=O)n2c1 [Compound 1035] | > 2000 | C (C denotes ≤5-fold) | – | – |
| C=CC(=O)Nc1cc(C(C)Nc2ccccc2C(=O)O)c2nc(N3Cc4ccccc4C3)cc(=O)n2c1 (stereo not shown) [Compound 939] | > 2000 | C (C denotes ≤5-fold) | – | – |
| Cc1cc([C@@H](C)Nc2ccccc2-c2ccnnc2)c2nc(-c3ccc4c(C)cn(C)c4c3)c(C)c(=O)n2c1 [Compound 1133] | > 2000 | – | C (C denotes ≤5-fold) | – |
| Cc1cc([C@H](C)Nc2ccccc2C(=O)O)c2nc(N3Cc4ccccc4C3)cc(=O)n2c1 [Compound 403] | – | – | C (C denotes ≤5-fold) | > 2000 |
| Cc1cc(C(C)Nc2ccccc2C#N)c2nc(-c3ccccc3)c(C)c(=O)n2c1 (stereo not shown) [Compound 1117] | – | – | B (B denotes 20-fold≥value>5-fold) | – |
| Cc1cc([C@H](C)Nc2ccccc2S(N)(=O)=O)c2nc(-c3cccc(C(F)F)c3)c(C)c(=O)n2c1 [Compound 1098] | > 2000 | – | C (C denotes ≤5-fold) | – |
| Cc1cc([C@@H](C)Nc2ccccc2C(=O)O)c2nc(-c3ccc4snc(N)c4c3)cc(=O)n2c1 [Compound 809] | < 100 | A (A denotes >20-fold) | – | – |
| Cc1cc([C@@H](C)N[C@H](C(=O)O)c2ccccc2)c2nc(N3CCOCC3)cc(=O)n2c1 [Compound 648] | > 2000 | C (C denotes ≤5-fold) | – | – |
| Cc1cc(C(C)Nc2ccc(F)cc2C(=O)O)c2nc(N3CCOCC3)cc(=O)n2c1 (stereo not shown) [Compound 288] | – | – | B (B denotes 20-fold≥value>5-fold) | 500 to 2000 |
| Cc1cc([C@@H](C)Nc2ccccc2C(=O)O)c2nc(-c3cnc(C4CCOCC4)nc3)c(C)c(=O)n2c1 [Compound 1296] | 100 to 500 | – | A (A denotes >20-fold) | – |
| Cc1cc([C@@H](C)Nc2ccccc2S(N)(=O)=O)c2nc([C@@H]3CCCN(CC(F)F)C3)c(C)c(=O)n2c1 [Compound 1309] | 500 to 2000 | – | B (B denotes 20-fold≥value>5-fold) | – |
| Cc1cc([C@@H](C)Nc2ccccc2-c2cc(O)no2)c2nc(-c3cccc(F)c3)c(C)c(=O)n2c1 [Compound 1368, (R)-2-(3-fluorophenyl)-9-(1-((2-(3-hydroxyisoxazol-5-yl)phenyl)amino)ethyl)-3,7-dimethyl-4H-pyrido[1,2-a]pyrimidin-4-one] | > 2000 | – | C (C denotes ≤5-fold) | – |
| Cc1cc(C(C)Nc2ccccc2S(N)(=O)=O)c2nc(-c3ccncc3)cc(=O)n2c1 (stereo not shown) [Compound 346] | – | – | A (A denotes >20-fold) | 500 to 2000 |
| Cc1cc(C(C)Nc2ccccc2C(=O)O)c2nc(-c3cc(F)cc(C#N)c3)c(C)c(=O)n2c1 (stereo not shown) [Compound 1103] | < 100 | – | A (A denotes >20-fold) | – |
| Cc1cc(C(C)Nc2cccc(C#N)c2C(=O)O)c2nc(-c3ccc4c(c3)c(C)nn4C)cc(=O)n2c1 (stereo not shown) [Compound 981] | > 2000 | C (C denotes ≤5-fold) | – | – |
| Cc1cc([C@@H](C)Nc2ccccc2C(=O)NS(C)(=O)=O)c2nc(N3CCOCC3)cc(=O)n2c1 [Compound 155] | – | – | C (C denotes ≤5-fold) | > 2000 |
| Cc1cc([C@H](C)Nc2ccccc2S(N)(=O)=O)c2nc(-c3ccc4c(c3)c(C)nn4C3CC3)c(C)c(=O)n2c1 [Compound 962] | > 2000 | C (C denotes ≤5-fold) | – | – |
| Cc1cc([C@@H](C)Nc2ccccc2C)c2nc(N3CCOCC3)cc(=O)n2c1 [Compound 248] | – | – | C (C denotes ≤5-fold) | < 100 |
| Cc1cc([C@H](C)Nc2ccccc2C(=O)O)c2nc(C3CCCOC3)c(C#N)c(=O)n2c1 (stereo partly shown) [Compound 1364] | > 2000 | – | C (C denotes ≤5-fold) | – |
| Cc1cc(C(C)Nc2ccccc2C(=O)O)c2nc(N3CCS(=O)(=O)CC3)cc(=O)n2c1 (stereo not shown) [Compound 137] | – | – | C (C denotes ≤5-fold) | > 2000 |
| Cc1cc([C@H](C)Nc2ccccc2C(=O)O)c2nc(-c3ccc(C#CC4(C)CCC4)c(F)c3)c(C)c(=O)n2c1 [Compound 1267] | – | – | C (C denotes ≤5-fold) | – |
| Cc1cc([C@@H](C)Nc2c(F)cccc2C(=O)O)c2nc(N3CCOCC3)cc(=O)n2c1 [Compound 333] | – | – | C (C denotes ≤5-fold) | > 2000 |

| Structure (SMILES) | IC50 (EGF stimulation) [nM] | T47D pAKT S473 HTRF IC50 (H1047R): T47D (H1047R) selectivity over SKBR3 (WT) [1] | T47D pAKT S473 HTRF IC50 (H1047R): T47D (H1047R) selectivity over SKBR3 (WT) [2] | IC50 [3] [nM] |
| --- | --- | --- | --- | --- |
| Cc1cc(C(C)Nc2ccccc2C(=O)O)c2nc(-c3ccncc3)cc(=O)n2c1 (single isomer, unassigned) [Compound 269] | – | – | A (A denotes >20-fold) | < 100 |
| Cc1cc(C(C)Nc2cccc3onc(O)c23)c2nc(-c3cccc(F)c3)c(C)c(=O)n2c1 (stereo not shown) [Compound 1356] | – | – | A (A denotes >20-fold) | – |
| Cc1cc([C@@H](C)Nc2ccccc2C(=O)O)c2nc(N3CCCCC3)cc(=O)n2c1 [Compound 7] | – | – | A (A denotes >20-fold) | 100 to 500 |
| Cc1cc([C@H](C)Nc2ccccc2C(=O)O)c2nc(-c3ccc4c(c(N)nn4C)c3C)cc(=O)n2c1 [Compound 703] | > 2000 | C (C denotes ≤5-fold) | – | – |
| Cc1cc([C@H](C)Nc2ccccc2-c2ccnnc2)c2nc(N3Cc4ccccc4C3)c(C)c(=O)n2c1 [Compound 909] | > 2000 | C (C denotes ≤5-fold) | – | – |
| COc1cccc(NC(C)c2cc(C)cn3c(=O)cc(N4Cc5ccccc5C4)nc23)c1CO (stereo not shown) [Compound 865] | > 2000 | C (C denotes ≤5-fold) | – | – |
| Cc1cc([C@H](C)Nc2ccccc2C(=O)O)c2nc(-c3ccc4c(c3)c(C)cn4C3CCOCC3)c(C)c(=O)n2c1 [Compound 1009] | – | C (C denotes ≤5-fold) | – | – |
| Cc1cc([C@@H](C)Nc2ccccc2C(=O)O)c2nc([C@H]3CCCOC3)c(C)c(=O)n2c1 [Compound 1279] | < 100 | – | A (A denotes >20-fold) | – |
| Cc1cc([C@@H](C)Nc2ccccc2-c2ccnnc2)c2nc(N3CCOCC3)cc(=O)n2c1 [Compound 495] | – | – | C (C denotes ≤5-fold) | > 2000 |
| Cc1cc([C@H](C)Nc2ccccc2C(=O)O)c2nc(N3Cc4ccccc4C3)c(C#N)c(=O)n2c1 [Compound 1208] | 100 to 500 | – | A (A denotes >20-fold) | – |
| Cc1cc(C(C)Nc2ccccc2C(=O)O)c2nc(-c3ccc4[nH]nc(C)c4c3)cc(=O)n2c1 (stereo not shown) [Compound 348] | – | – | A (A denotes >20-fold) | – |
| Cc1cc([C@H](C)Nc2cccc3c2OCC(=O)N3)c2nc(N3CCOCC3)cc(=O)n2c1 [Compound 686] | > 2000 | C (C denotes ≤5-fold) | – | – |
| Cc1cc([C@@H](C)Nc2c(C(=O)O)cnn2C)c2nc(N3CCOCC3)cc(=O)n2c1 [Compound 390] | – | – | C (C denotes ≤5-fold) | > 2000 |
| CCc1cc(C(=O)NOC)ccc1-c1cc(=O)n2cc(C)cc([C@@H](C)Nc3ccccc3C(=O)O)c2n1 [Compound 503] | – | – | C (C denotes ≤5-fold) | > 2000 |
| Cc1cc([C@@H](C)Nc2ccccc2C(=O)O)c2nc(-c3ccc(C4CN(C)C4)nc3)c(C)c(=O)n2c1 [Compound 1342] | – | – | C (C denotes ≤5-fold) | – |
| Cc1cc([C@H](C)Nc2ccccc2C(=O)O)c2nc(-c3ccc4snc(N)c4c3)cc(=O)n2c1 [Compound 810] | > 2000 | C (C denotes ≤5-fold) | – | – |
| CC1=CN2C(=O)C(C)C(c3ccc(CCC(C)(C)C)cc3)N=C2C([C@H](C)Nc2ccccc2C(=O)O)=C1 (stereo partly shown) [Compound 1151] | – | – | C (C denotes ≤5-fold) | – |
| Cc1cc([C@@H](C)Nc2ccccc2C(=O)O)c2nc(-c3ccc(C(=O)NO)cc3)cc(=O)n2c1 [Compound 501] | – | – | C (C denotes ≤5-fold) | > 2000 |
| Cc1cc(C(C)Nc2c(C(=O)O)cnn2C)c2nc(N3CCOCC3)cc(=O)n2c1 (stereo not shown) [Compound 379] | – | – | C (C denotes ≤5-fold) | > 2000 |
| Cc1cc([C@@H](C)Nc2ccccc2S(N)(=O)=O)c2nc(-c3ccc4c(C)nn(C5CC5)c4c3)c(C)c(=O)n2c1 [Compound 1027] | 100 to 500 | A (A denotes >20-fold) | – | – |
| Cc1cc(C(C)Nc2ccccc2C(=O)O)c2nc(C3CCN(C(=O)C4(N)CC4)CC3)cc(=O)n2c1 (stereo not shown) [Compound 524] | – | – | C (C denotes ≤5-fold) | > 2000 |
| Cc1cc([C@H](C)Nc2ccccc2C(=O)O)c2nc(-c3ccc4c(c3)c(C)nn4C)cc(=O)n2c1 [Compound 697] | – | C (C denotes ≤5-fold) | – | – |
